Results from patent US11396517B1, “Exo-aza spiro inhibitors of menin-MLL interaction” (Janssen Pharmaceutica NV, priority 2017, dated 2022).
Read-outs that look alike come from different tables or passages of the source.

Biological target: T1, menin (Homo sapiens, UniProt O00255, T541A)
T1 construct: Menin (a.a. 1-610-6×his tag)
T1 sequence (O00255 with tags, fused parts or gaps T541A): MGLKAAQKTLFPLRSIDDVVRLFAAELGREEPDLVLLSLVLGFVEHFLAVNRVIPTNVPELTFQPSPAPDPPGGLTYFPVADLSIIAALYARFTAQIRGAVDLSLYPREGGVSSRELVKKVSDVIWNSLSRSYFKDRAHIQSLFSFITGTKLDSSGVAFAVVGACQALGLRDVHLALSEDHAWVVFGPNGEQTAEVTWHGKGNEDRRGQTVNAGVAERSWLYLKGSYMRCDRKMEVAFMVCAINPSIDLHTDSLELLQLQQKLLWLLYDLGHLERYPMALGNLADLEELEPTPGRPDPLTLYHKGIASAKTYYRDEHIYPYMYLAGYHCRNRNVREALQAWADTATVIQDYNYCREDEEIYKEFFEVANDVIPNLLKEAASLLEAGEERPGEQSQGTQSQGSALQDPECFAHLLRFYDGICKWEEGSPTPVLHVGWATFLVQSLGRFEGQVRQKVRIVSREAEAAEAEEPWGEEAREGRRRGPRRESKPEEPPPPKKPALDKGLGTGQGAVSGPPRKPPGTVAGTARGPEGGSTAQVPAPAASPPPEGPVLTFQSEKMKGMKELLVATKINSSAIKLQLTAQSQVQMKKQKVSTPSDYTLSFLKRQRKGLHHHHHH
Test: Menin/MLL homogenous time-resolved fluorescence (HTRF) assay
Type: binding
Procedure: 2) Menin/MLL Homogenous Time-Resolved Fluorescence (HTRF) Assay
To an untreated, white 384-well microtiter plate was added 40 nL 200× test compound in DMSO and 4 μL 2× terbium chelate-labeled menin (vide infra for preparation) in assay buffer (40 mM Tris HCl, pH 7.5, 50 mM NaCl, 1 mM DTT and 0.05% Pluronic F-127). After incubation of test compound and terbium chelate-labeled menin for 5 min at ambient temperature, 4 μL 2× FITC-MBM1 peptide (FITC-β-alanine-[…]-NH2 (SEQ ID NO: 23)) in assay buffer was added, the microtiter plate centrifuged at 1000 rpm for 1 min and the assay mixtures incubated for 15 min at ambient temperature. The relative amount of menin.FITC-MBM1 complex present in an assay mixture is determined by measuring the homogenous time-resolved fluorescence (HTRF) of the terbium/FITC donor/acceptor fluorphore pair using a BMG Pherastar plate reader (ex. 337 nm/terbium em. 490 nm/FITC em. 520 nm) at ambient temperature. The degree of fluorescence resonance energy transfer (the HTRF value) is expressed as the ratio of the fluorescence emission intensities of the FITC and terbium fluorophores (Fern 520 nm/Fem 490 nm). The final concentrations of reagents in the binding assay are […] terbium chelate-labeled menin (location 2), 75 nM FITC-MBM1 peptide and 0.5% DMSO in assay buffer. Dose-response titrations of test compounds are conducted using an 11 point, three-fold serial dilution scheme, starting typically at 25 μM (location 1) or starting typically at 10 μM (location 2).
Compound potencies were determined by first calculating % inhibition at each compound concentration according to equation 1: % inhibition=((HC−LC)−(HTRF^compound−LC))/(HC−LC))*100 (Eqn 1)
Where LC and HC are the HTRF values of the assay in the presence or absence of a saturating concentration of a compound that competes with FITC-MBM1 for binding to menin, and HTRF^compound is the measured HTRF value in the presence of the test compound. FTC and LC HTRF values represent an average of at least 16 replicates per plate.
Where Bottom and Top are the lower and upper asymptotes of the dose-response curve, respectively, IC50 is the concentration of compound that yields 50% inhibition of signal and h is the Hill coefficient.
Preparation of Terbium cryptate labeling of Menin: Menin (a.a. 1-610-6×his tag (“6×his” disclosed as SEQ ID NO: 3)) was labeled with terbium cryptate as follows. 2 mg of Menin was buffer exchanged into 1× phosphate buffered saline. 16 uM Menin was incubated with 4-fold molar excess NHS-terbium cryptate (Cisbio Bioassays, Bedford, Mass.) for 2 hours at room temperature. The labeled protein was purified away from free label by running the reaction over a Superdex 200 Increase 10/300 GL column at 0.75 ml/min. Peak fractions were collected, aliquoted and frozen at −80° C.

[1] = location 2, read-out: (2) location 2 Menin HTRF assay (IC50 (nM))
[2] = location 1, read-out: (2) location 1 Menin HTRF assay (IC50 (nM))

| IC50 [1] [nM] | IC50 [2] [nM] | Compound |
| --- | --- | --- |
| 146 | – | O=c1[nH]c2ccc(N[C@@H]3CCC4(C3)CN(c3ncnc5sc(CC(F)(F)F)cc35)C4)cc2o1 (single isomer, unassigned) [Compound 296] |
| 943 | – | CNc1nc(N2CCC3(CC(Nc4ccccc4)C3)C2)c2cc(CC(F)(F)F)sc2n1 (single isomer, unassigned) [Compound 268] |
| 131 | – | O=c1[nH]c2ccc(N[C@H]3CCC4(C3)CN(c3ncnc5sc(CC(F)(F)F)cc35)C4)cc2o1 (single isomer, unassigned) [Compound 297] |
| 55.2 | – | FC(F)(F)Cc1cc2c(N3CCC4(CC(Nc5ccc6cc[nH]c6c5)C4)C3)ncnc2s1 (single isomer, unassigned) [Compound 313] |
| 2300 | – | CN1CCN(C(=O)c2ccc(NC3CC4(CCN(c5ncnc6sc(CC(F)(F)F)cc56)C4)C3)cc2)CC1 (single isomer, unassigned) [Compound 337] |
| 331 | – | CNc1nc(N2CC3(CCC(Nc4ccc5oc(=O)[nH]c5c4)C3)C2)c2cc(CC(F)(F)F)sc2n1 (stereo not shown) [Compound 401] |
| 521 | – | FC(F)(F)Cc1cc2c(N3CC4(CC[C@@H](Nc5ccc(-c6cn[nH]c6)cc5)C4)C3)ncnc2s1 (single isomer, unassigned) [Compound 303] |
| 96 | – | N#CCc1ccc(NC2CCC3(C2)CN(c2nc(N)nc4sc(CC(F)(F)F)cc24)C3)cc1 (single isomer, unassigned) [Compound 389] |
| 576 | – | O=c1cc(NC2CC3(CCN(c4ncnc5sc(CC(F)(F)F)cc45)C3)C2)cc[nH]1 (mixture of isomers) [Compound 424] |
| > 10000 | – | CN(C1CC2(CCN(c3ncnc4sc(CC(F)(F)F)cc34)C2)C1)S(=O)(=O)c1ccc(C(F)(F)F)cc1 (mixture of isomers) [Compound 427] |
| 373 | – | CNc1nc(N2CC3(CCC(Nc4ccc(CC#N)cc4)C3)C2)c2cc(CC(F)(F)F)sc2n1 (stereo not shown) [Compound 400] |
| 128 | – | O=c1[nH]c2ccc(N[C@H]3CCC4(C3)CN(c3ncnc5sc(CC(F)(F)F)cc35)C4)cc2[nH]1 (single isomer, unassigned) [Compound 300] |
| 553 | – | Cc1nc(N2CC3(CCC(Nc4ccc(CC#N)cc4)C3)C2)c2cc(CC(F)(F)F)sc2n1 (racemic) [Compound 403] |
| 906 | – | CNc1nc(N2CC3(CCC(Nc4ccc5[nH]c(=O)[nH]c5c4)C3)C2)c2cc(CC(F)(F)F)sc2n1 (stereo not shown) [Compound 402] |
| 330 | – | CC(=O)Nc1ccc(NC2CC3(CCN(c4ncnc5sc(CC(F)(F)F)cc45)C3)C2)cc1 (single isomer, unassigned) [Compound 332] |
| 58.4 | – | O=C1Cc2ccc(N[C@H]3CCC4(C3)CN(c3ncnc5sc(CC(F)(F)F)cc35)C4)cc2N1 (single isomer, unassigned) [Compound 294] |
| 536 | – | CN(C1CC2(CCN(c3ncnc4sc(CC(F)(F)F)cc34)C2)C1)S(=O)(=O)c1cccc(C(F)(F)F)c1 (mixture of isomers) [Compound 426] |
| 16.8 | – | CNc1nc(N2CCC3(CC(Nc4ccc(CC#N)cc4)C3)C2)c2cc(CC(F)(F)F)sc2n1 (single isomer, unassigned) [Compound 392] |

Continued, compound first:

| Compound | IC50 [1] [nM] | IC50 [2] [nM] |
| --- | --- | --- |
| FC(F)(F)Cc1cc2c(N3CCC4(CC(Nc5ccccc5)C4)C3)ncnc2s1 (single isomer, unassigned) [Compound 150] | 370 | – |
| COc1nc(N2CC3(CC[C@@H](NCc4cccc(-c5cc[nH]n5)c4)C3)C2)c2cc(CC(F)(F)F)sc2n1 (stereo in doubt) [Compound 115] | 160 | – |
| N#CCc1ccc(N[C@@H]2CC[C@]3(CCN(c4ncnc5sc(CC(F)(F)F)cc45)C3)C2)cc1 (stereo in doubt) [Compound 146] | 23.7 | – |
| O=C(NC1CC2(CCN(c3ncnc4sc(CC(F)(F)F)cc34)C2)C1)c1ccccc1 (single isomer, unassigned) [Compound 37] | 8340 | – |
| N#CCc1cccc(NC2CCC3(C2)CN(c2ncnc4sc(CC(F)(F)F)cc24)C3)c1 (stereo not shown) [Compound 114] | 157 | – |
| N#CCc1ccc(C(=O)NC2CC3(CCN(c4ncnc5sc(CC(F)(F)F)cc45)C3)C2)cc1 (single isomer, unassigned) [Compound 12] | 730 | – |
| CN(C(=O)c1ccccc1)C1CC2(CCN(c3ncnc4sc(CC(F)(F)F)cc34)C2)C1 (mixture of isomers) [Compound 260] | > 10000 | – |
| FC(F)(F)Cc1cc2c(N3CCC4(CCC(Nc5ccccc5)C4)C3)ncnc2s1 (single isomer, unassigned) [Compound 34] | 338 | – |
| N#CCc1cccc(NC2CC3(CCN(c4ncnc5sc(CC(F)(F)F)cc45)C3)C2)c1 (stereo not shown) [Compound 201] | 175 | – |
| O=C(NC1CCC2(CCN(c3ncnc4sc(CC(F)(F)F)cc34)C2)C1)c1ccccc1 (stereo not shown) [Compound 128] | > 10000 | – |
| O=C1CN(C(=O)c2ccc(NC3CC4(CCN(c5ncnc6sc(CC(F)(F)F)cc56)C4)C3)cc2)CCN1 (stereo not shown) [Compound 104] | 16.6 | – |
| CN(C1CC2(CCN(c3ncnc4sc(CC(F)(F)F)cc34)C2)C1)S(=O)(=O)c1ccccc1 (single isomer, unassigned) [Compound 25] | 510 | – |
| COc1nc(N2CCC3(CC(Nc4ccccc4)C3)C2)c2cc(CC(F)(F)F)sc2n1 (single isomer, unassigned) [Compound 266] | 1020 | – |
| N#CCc1ccc(C(=O)NC2CCC3(C2)CN(c2ncnc4sc(CC(F)(F)F)cc24)C3)cc1 (stereo not shown) [Compound 20] | 2790 | 2020 |
| Cn1cc(NC2CCC3(C2)CN(c2ncnc4sc(CC(F)(F)F)cc24)C3)cn1 (stereo not shown) [Compound 43] | 1750 | – |
| CN(C)CCNC(=O)c1ccc(NC2CC3(CCN(c4ncnc5sc(CC(F)(F)F)cc45)C3)C2)cc1 (single isomer, unassigned) [Compound 74] | 60.4 | – |
| CNC(=O)c1c(F)cc(NC2CC3(CCN(c4ncnc5sc(CC(F)(F)F)cc45)C3)C2)cc1F (single isomer, unassigned) [Compound 244] | 516 | – |
| N#CCc1cccc(C(=O)NC2CCC3(CCN(c4ncnc5sc(CC(F)(F)F)cc45)C3)C2)c1 (stereo not shown) [Compound 127] | > 10000 | – |
| FC(F)(F)Cc1cc2c(N3CCC4(CCC(Nc5ccccc5)C4)C3)ncnc2s1 (single isomer, unassigned) [Compound 31] | 241 | – |
| CC(C)(C#N)c1cccc(C(=O)NC2CCC3(C2)CN(c2ncnc4sc(CC(F)(F)F)cc24)C3)c1 (stereo not shown) [Compound 19] | 3560 | 3630 |
| N#Cc1cccc(NC2CCC3(CCN(c4ncnc5sc(CC(F)(F)F)cc45)C3)C2)c1 (stereo not shown) [Compound 132] | 180 | – |
| Cc1noc2cc(NC3CC4(CCN(c5ncnc6sc(CC(F)(F)F)cc56)C4)C3)ccc12 (mixture of isomers) [Compound 215] | 62 | – |
| CNC(=O)c1ccc(NC2CC3(CCN(c4ncnc5sc(CC(F)(F)F)cc45)C3)C2)cc1C1CCN(C)CC1 (single isomer, unassigned) [Compound 231] | 208 | – |
| N#CCc1cccc(C(=O)NC2CCC3(C2)CN(c2ncnc4sc(CC(F)(F)F)cc24)C3)c1 (stereo not shown) [Compound 18] | 1620 | 3840 |
| CC(C)(C#N)c1ccc(NC2CC3(CCN(c4ncnc5sc(CC(F)(F)F)cc45)C3)C2)cc1 (stereo not shown) [Compound 169] | 425 | – |
